# Measured values from US4579866A, “Phenylacetamides as anti-allergy, anti-asthma and anti-inflammatory agents” (USV Pharmaceutical Corp., priority 1984, dated 1986).
# Tests used:
# HUMAN 5 LIPOXYGENASE = molecular target: T1, HUMAN 5 LIPOXYGENASE (Homo sapiens, UniProt P09917); experiment: Biosynthesis of 5-HETE by human polymorphonuclear leukocytes in vitro (inhibition of human 5-lipoxygenase); assay type: cell-based; conditions: human neutrophils, A23187, 3 minutes at 30° C.; for IC50: concentration at which 50% inhibition is observed, read-out: INHIBITION OF HUMAN 5 LIPOXYGENASE, I50
# T1 construct: A suspension of human neutrophils in buffer; endogenous in cells; host or cells: human neutrophils (PMNs) from venous blood of healthy volunteers
# T1 sequence (P09917 1-674): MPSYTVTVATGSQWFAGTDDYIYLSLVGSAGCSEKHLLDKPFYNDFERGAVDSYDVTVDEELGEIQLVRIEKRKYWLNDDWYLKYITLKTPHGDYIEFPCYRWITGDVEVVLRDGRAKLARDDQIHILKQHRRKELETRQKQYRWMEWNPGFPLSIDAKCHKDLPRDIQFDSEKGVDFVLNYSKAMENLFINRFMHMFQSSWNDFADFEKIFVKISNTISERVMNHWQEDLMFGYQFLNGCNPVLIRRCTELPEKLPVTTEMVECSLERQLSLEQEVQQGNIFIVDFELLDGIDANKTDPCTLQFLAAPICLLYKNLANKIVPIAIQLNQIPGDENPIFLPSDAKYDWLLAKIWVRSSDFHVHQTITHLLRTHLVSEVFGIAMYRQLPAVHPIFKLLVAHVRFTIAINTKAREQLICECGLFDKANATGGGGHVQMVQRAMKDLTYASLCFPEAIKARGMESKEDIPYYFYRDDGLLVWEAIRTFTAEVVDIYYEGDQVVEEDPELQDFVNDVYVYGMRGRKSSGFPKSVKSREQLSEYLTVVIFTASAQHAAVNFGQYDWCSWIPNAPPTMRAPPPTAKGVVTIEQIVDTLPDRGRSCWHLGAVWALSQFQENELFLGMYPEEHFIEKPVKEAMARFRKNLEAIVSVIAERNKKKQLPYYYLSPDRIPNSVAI
# Procedure: Protocol for the Biosynthesis of 5-HETE (5(S)-Hydroxyeicosatetraenoic Acid) by Human Polymorphonuclear Leukocytes In Vitro
# (A) Isolation of Human Neutrophils
# Freshly drawn venous blood from healthy human volunteers is mixed with 2 mM ethylenediamine tetraacetic acid, and is sedimented at 1×g over 6% dextran-saline. The leukocyte layer is aspirated, and the cells are concentrated by centrifugation and are layered over stacked Percoll® solutions, having densities of 1.072, 1.082 and 1.100, respectively. PMNs are isolated at the interface between the two densest layers after centrifugation at 400×g. Contaminating red blood cells are lysed by a short treatment of 0.16M ammonium chloride.
# A suspension of human neutrophils in buffer is incubated for 3 minutes at 30° C. with (^14 C)-arachidonic acid (AA) and calcium ionophore A23187. Citric Acid (2M)/NDGA*(10 mM) is used to quench the reaction. Following the addition of a trace amount of (^3 H)-5-HETE together with an excess of unlabeled 5-HETE to each tube, the mixture is extracted with chloroform/methanol. The organic layer is washed with dilute hydrochloric acid and the total volume is transferred to glass tubes and dried in vacuo. The residue is dissolved in a small volume of chloroform and is spotted on silica gel TLC sheets, which are developed with an ethyl acetate/iso-octane/water/acetic acid solvent system (11/5/10/1 v/v). The 5-HETE spots are visualized under UV light, cut out and placed in scintillation vials for quantitation of radioactivity. After adjusting for the extraction efficiency, the amount (pmole) of (^14 C)-5-HETE in each of the tubes is calculated. The net pmoles of 5-HETE are obtained by subtracting the pmole of 5-HETE in the tubes containing buffer alone (blank) from the pmoles of 5-HETE in the tubes containing […]. The ability of the test compound to modulate the activity of this enzyme is determined by a decrease or increase in the net amount of 5-HETE produced. This assay is a modification of that described by Bach and Brashler for rat peritoneal cells: Bach, M., Brashler, J.: Ionophore A23187-Induced Production of SRS-A by Rat Peritoneal Cells In Vitro: Evidence for Production by Mononuclear Cells. J. Immunol. 120 998-1005 (1978).
# *NDGA-nordihydroguaiaretic acid
# (§1) If the percentage of inhibition exceeds 50%, the compounds are then evaluated in terms of response over a range of concentrations. From a plot of response against concentration, the I50 value is obtained. The I50 value is the concentration at which 50% inhibition is observed.
# RAT 5-LIPOXYGENASE = molecular target: T2, RAT 5-LIPOXYGENASE (Rattus norvegicus, UniProt P12527); experiment: Biosynthesis of 5-HETE by rat polymorphonuclear leukocytes in vitro (inhibition of rat 5-lipoxygenase); assay type: cell-based; conditions: rat neutrophils, A23187, 3 minutes at 30° C.; concentration at which 50% inhibition is observed; read-out: INHIBITION OF RAT 5-LIPOXYGENASE, I50
# T2 construct: A suspension of rat neutrophils in buffer; endogenous in cells; host or cells: rat neutrophils (polymorphonuclear leukocytes)
# T2 sequence (P12527 1-673): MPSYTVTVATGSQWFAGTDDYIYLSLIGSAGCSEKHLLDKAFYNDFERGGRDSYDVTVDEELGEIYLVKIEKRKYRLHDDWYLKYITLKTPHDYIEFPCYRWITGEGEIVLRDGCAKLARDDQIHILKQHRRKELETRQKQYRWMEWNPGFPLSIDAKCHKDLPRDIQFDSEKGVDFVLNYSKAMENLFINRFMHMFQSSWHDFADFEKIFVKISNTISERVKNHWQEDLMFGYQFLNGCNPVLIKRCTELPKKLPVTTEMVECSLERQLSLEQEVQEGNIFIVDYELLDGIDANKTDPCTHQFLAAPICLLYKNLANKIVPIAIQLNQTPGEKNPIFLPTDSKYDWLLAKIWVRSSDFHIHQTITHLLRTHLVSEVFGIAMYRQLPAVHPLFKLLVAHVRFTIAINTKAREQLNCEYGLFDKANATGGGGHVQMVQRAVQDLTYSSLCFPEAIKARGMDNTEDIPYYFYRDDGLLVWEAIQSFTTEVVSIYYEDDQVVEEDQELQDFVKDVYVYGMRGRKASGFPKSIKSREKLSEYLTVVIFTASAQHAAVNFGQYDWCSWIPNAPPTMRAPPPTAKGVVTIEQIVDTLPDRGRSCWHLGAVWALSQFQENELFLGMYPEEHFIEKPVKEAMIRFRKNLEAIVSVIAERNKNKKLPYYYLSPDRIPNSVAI
# Procedure: Protocol for the Biosynthesis of 5-HETE by Rat Polymorphonuclear Leukocytes In Vitro
# A suspension of rat neutrophils in buffer is incubated for 3 minutes at 30° C. with [^14 C]-arachidonic acid (AA) and calcium ionophore A23187. Citric Acid (2M) NDGA (10 mM) is used to quench the reaction. Following the addition of a trace amount of (^3 H)-5-HETE together with an excess of unlabeled 5-HETE to each tube, the mixture is extracted with chloroform/methanol. The organic layer is washed with dilute acid and an aliquot is transferred to glass tubes and dried. The residue is dissolved in a small volume of chloroform and an aliquot is spotted on silica gel TLC sheets, which are developed with an ethyl acetate/isoctane/water/acetic acid solvent system. The 5-HETE spots are visualized under UV light, cut out and placed in scintillation vials for counting. After adjusting for the extraction efficiency, the amount (pmole) of [^14 C]-5-HETE in each of the tubes is quantitated. The net pmoles of 5-HETE are obtained by subtracting the pmoles of 5-HETE in the tubes containing buffer alone (blank) from the pmoles of 5-HETE in the tubes containing […]. The ability of the test compounds to modulate the activity of this enzyme is determined by a decrease or increase in the net amount of 5-HETE produced.
# as §1
IC50 (HUMAN 5 LIPOXYGENASE) [µM],IC50 (RAT 5-LIPOXYGENASE) [nM],inhibition at 30 µM (HUMAN 5 LIPOXYGENASE) [%],SMILES
0.6,250,,COC(=O)[C@@H](Cc1ccccc1)NC(=O)Cc1ccc(OCc2ccccc2)c(Cl)c1 [4-Benzyloxy-3-Chlorophenylacetyl-D-Phenylalanine Methyl Ester]
14,5400,,COC(=O)[C@@H](Cc1c[nH]c2ccccc12)NC(=O)Cc1ccc(OCc2ccccc2)c(Cl)c1 [4-Benzyloxy-3-chlorophenylacetyl-D-tryptophan methyl ester]
50,1000,,COC(=O)[C@@H](Cc1ccccc1)NC(=O)Cc1ccc(OCC2CC2)c(Cl)c1 [3-Chloro-4-cyclopropylmethyloxyphenylacetyl-D-phenylalanine methyl ester]
8,2200,,CN(CCc1ccccc1)C(=O)Cc1ccc(OCCc2ccccc2)c(Cl)c1 [N--[3-Chloro-4-phenylethyloxyphenylacetyl]-N--methyl-2-phenylethylamine]
,2000,95,COC(=O)[C@@H](Cc1ccccc1)NC(=O)Cc1ccc(OC(C)C)c(Cl)c1 [3-Chloro-4-isopropyloxyphenylacetyl-D-phenylalanine methyl ester]
2,4200,,CN(CCc1ccccc1)C(=O)Cc1ccc(OCc2ccccc2)c(Cl)c1 [N--[4-Benzyloxy-3-chlorophenylacetyl]-N--methyl-2-phenylethylamine]
7,700,,COC(=O)[C@@H](Cc1ccccc1)NC(=O)Cc1ccc(OCCc2ccccc2)c(Cl)c1 [3-Chloro-4-phenylethyloxyphenylacetyl-D-phenylalanine methyl ester]
,5000,28,COC(=O)[C@@H](Cc1ccccc1)N(C)C(=O)Cc1ccc(OCCc2ccccc2)c(Cl)c1 [3-Chloro-4-phenylethyloxyphenylacetyl-N--methyl-D-phenylalanine methyl ester]
